Test results as given in patent US4966900A, “Cephalosporin β-lactam compound and medicinal composition” (priority 1986, dated 1990).
≈ marks a conversion by molar mass, not a printed value. Structures can show the parent of a compound that is named as a salt.

Columns and labels:
Assay in all cases: MIC
[1] = system: E. cloacae 1Y247; type: cell-based; conditions: Enterobacter cloacae, Table 6, read-out: MIC
Description: (§1) The minimum inhibition concentrations (MIC) of the compounds obtained in the respective examples described above were measured according to the standard method of Japanese Chemotherapy Association.

[2] = system: S. aureus IAA498; type: cell-based; conditions: Staphylococcus aureus
Description: as §1

[3] = system: S. aureus Smith
[4] = system: E. coli ML4707
[5] = system: E. coli GN5482
[6] = system: K. pneumoniae 4at521
[7] = system: E. colacae GN7471
[8] = system: E. cloacae 908RN; conditions: Enterobacter cloacae
[9] = system: C. freundii GN7391
[10] = system: S. marcescens GN10857
[11] = system: P. vulgaris GN7919
[12] = system: P. aeruginosa GN10362; conditions: Pseudomonas aeruginosa, GN10362
[13] = system: P. aeruginosa 4au542
[14] = system: P. aeruginosa 5D58-1
[15] = system: P. cepacia OF189
[16] = system: P. maltophilia OF247; conditions: Stenotrophomonas maltophilia
[17] = system: E. cloacae 5D52-2; conditions: Enterobacter cloacae, 5D522
[18] = system: E. cloacae 5D63-2; conditions: Enterobacter cloacae, 5D632
[19] = system: E. cloacae 1V25; conditions: Enterobacter cloacae
[20] = system: C. freundii 5D60-1
[21] = system: C. freundii 1R523; conditions: Citrobacter freundii, 1R523
[22] = system: C. freundii 1R524; conditions: Citrobacter freundii, 1R524
[23] = system: C. freundii 1R526; conditions: Citrobacter freundii, 1R526
[24] = system: C. freundii 1R527; conditions: Citrobacter freundii, 1R527
[25] = system: C. freundii 1U589
[26] = system: C. freundii 1U692
[27] = Escherichia coli, ML4707, E. coli ML4707, Table 5
[28] = Escherichia coli, GN5482, E. coli GN5482, Table 5
[29] = Citrobacter freundii, GN7391, C. freundii GN7391, Table 5
[30] = Citrobacter freundii, GN7391, C. freundii GN7391, Table 6
[31] = Serratia marcescens, GN10857, S. marcescens GN10857, Table 5
[32] = Pseudomonas aeruginosa, 4AU542, P. aeruginosa 4au542, Table 5
[33] = Pseudomonas aeruginosa, 5D581, P. aeruginosa 5D58-1, Table 5
[34] = Burkholderia cepacia, OF189, P. cepacia OF189, Table 5

Compound | MIC [1] [µg/mL] | MIC ([2]; Table 5) [µg/mL] | MIC ([3]; Staphylococcus aureus, Table 5) [µg/mL] | MIC [4, 27] [µg/mL] | MIC [5, 28] [µg/mL] | MIC ([6]; Klebsiella pneumoniae, 4AT521) [µg/mL] | MIC ([7]; Table 5) [µg/mL] | MIC ([8]; E. cloacae 908RN, Table 6) [µg/mL] | MIC ([8]; E. colacae 908RN, Table 5) [µg/mL] | MIC [9, 29] [µg/mL] | MIC [9, 30] [µg/mL] | MIC [10, 31] [µg/mL] | MIC ([11]; Proteus vulgaris, GN7919) [µg/mL] | MIC [12] [µg/mL] | MIC [13, 32] [µg/mL] | MIC [14, 33] [µg/mL] | MIC [15, 34] [µg/mL] | MIC ([16]; Table 5) [µg/mL] | MIC [17] [µg/mL] | MIC [18] [µg/mL] | other results
Cc1nc2c(C(=O)O)cnn2c(SCC2=C(C(=O)O)N3C(=O)C(NC(=O)C(=NOC(C)(C)C(=O)NNC(=O)c4ccc(O)c(O)c4)c4csc(N)n4)C3SC2)c1C (stereo not shown) [Example 27, 7-{2-[2-Amino-1,3-thiazol-4-yl]-2-[1-(3-(3,4-dihydroxybenzoyl)carbazoyl)-1-methylethoxyimino]acetamide}-3-[(3-carboxy-5,6-dimethylpyrazolo[1,5-a]pyrimidin-7-yl)thiomethyl]-3-cephem-4-carboxylic acid.hydrochloride] | 0.78 | 50 | 25 | 0.012 | < 0.006 | < 0.006 | 0.78 | 0.78 | 0.39 | 0.78 | 0.78 | 0.1 | 0.39 | 0.05 | 0.2 | 0.2 | 0.012 | 0.2 | 0.1 | 0.2 | MIC [19]: 0.39 µg/mL; MIC ([20]; Citrobacter freundii, 5D601): 6.25 µg/mL; MIC [21]: 0.2 µg/mL; MIC [22]: 0.1 µg/mL; MIC [23]: 0.1 µg/mL; MIC [24]: 0.1 µg/mL; MIC ([25]; Citrobacter freundii, 1U589): 0.39 µg/mL; MIC ([26]; Citrobacter freundii, 1U692): 0.2 µg/mL
Cc1cc(SCC2=C(C(=O)O)N3C(=O)C(NC(=O)C(=NOC(C)(C)C(=O)NNC(=O)c4ccc(O)c(O)c4)c4csc(N)n4)C3SC2)n2nnnc2n1 (stereo not shown) [Example 29, 7-{2-[2-amino-1,3-thiazol-4-yl]-2-[1-(3-(3,4-dihydroxybenzoyl)carbazoyl)-1-methylethoxyimino]acetamide}-3-[(5-methyltetrazolo[1,5-a]pyrimidin-7-yl)thiomethyl]-3-cephem-4-carboxylic acid.hydrochloride] | 0.78 | 3.13 | 1.56 | < 0.006 | 0.025 | 0.012 | 1.56 | 3.13 | 6.25 | 6.25 | 0.012 | 0.39 | 6.25 | 0.39 | 0.78 | 0.39 | < 0.006 | 0.2 | 0.78 | 0.78 | MIC [19]: 3.13 µg/mL; MIC ([20]; Citrobacter freundii, 5D601): 0.39 µg/mL; MIC [21]: 0.2 µg/mL; MIC [22]: 0.78 µg/mL; MIC [23]: 0.2 µg/mL; MIC [24]: 0.78 µg/mL; MIC ([25]; Citrobacter freundii, 1U589): 0.78 µg/mL; MIC ([26]; Citrobacter freundii, 1U692): 12.5 µg/mL
CC(C)(ON=C(C(=O)NC1C(=O)N2C(C(=O)O)=C(CSc3c4c(nc5nc(C(=O)O)nn35)CCC4)CSC12)c1csc(N)n1)C(=O)NNC(=O)c1ccc(O)c(O)c1 (stereo not shown) [Example 33, 7-{2-[2-amino-1,3-thiazol-4-yl]-2-[1-(3-(3,4-dihydroxybenzoyl)carbazoyl)-1-methylethoxyimino]acetamide}-3-[(2-carboxy-6,7-dihydro-5H-cyclopenta[f]-s-triazolo[1,5-a]pyrimidin-8-yl)thiomethyl]-3-cephem-4-carboxylic acid.hydrochloride] | 1.56 | 25 | 25 | < 0.006 | < 0.006 | < 0.006 | 0.39 | 0.2 | 0.2 | 0.39 | 0.78 | 0.05 | 0.2 | 0.05 | 0.2 | 0.2 | < 0.006 | 0.1 | 0.1 | 0.1 | MIC [19]: 1.56 µg/mL; MIC ([20]; Citrobacter freundii, 5D601): 0.2 µg/mL; MIC [21]: 0.05 µg/mL; MIC [22]: 0.025 µg/mL; MIC [23]: 0.025 µg/mL; MIC [24]: 0.025 µg/mL; MIC ([25]; Citrobacter freundii, 1U589): 0.05 µg/mL; MIC ([26]; Citrobacter freundii, 1U692): 0.05 µg/mL
CC(C)(ON=C(C(=O)NC1C(=O)N2C(C(=O)O)=C(CSc3c4c(nc5ncnn35)CCC4)CSC12)c1csc(N)n1)C(=O)NNC(=O)c1ccc(O)c(O)c1 (stereo not shown) [Example 36] | 12.5 (≈ 15.4 µM) | 12.5 (≈ 15.4 µM) | 6.25 (≈ 7.72 µM) | 0.012 (≈ 0.0148 µM) | 0.012 (≈ 0.0148 µM) | 0.012 (≈ 0.0148 µM) | 3.13 (≈ 3.86 µM) | 12.5 (≈ 15.4 µM) | 3.13 (≈ 3.86 µM) | 3.13 (≈ 3.86 µM) | 6.25 (≈ 7.72 µM) | 0.39 (≈ 0.482 µM) | 0.78 (≈ 0.963 µM) | 0.2 (≈ 0.247 µM) | 0.39 (≈ 0.482 µM) | 0.78 (≈ 0.963 µM) | 0.012 (≈ 0.0148 µM) | 0.2 (≈ 0.247 µM) | 0.2 (≈ 0.247 µM) | 0.39 (≈ 0.482 µM) | MIC [19]: 12.5 µg/mL (≈ 15.4 µM); MIC ([20]; Citrobacter freundii, 5D601): 1.56 µg/mL (≈ 1.93 µM); MIC [21]: 0.2 µg/mL (≈ 0.247 µM); MIC [22]: 0.2 µg/mL (≈ 0.247 µM); MIC [23]: 0.2 µg/mL (≈ 0.247 µM); MIC [24]: 0.2 µg/mL (≈ 0.247 µM); MIC ([25]; Citrobacter freundii, 1U589): 0.39 µg/mL (≈ 0.482 µM); MIC ([26]; Citrobacter freundii, 1U692): 0.39 µg/mL (≈ 0.482 µM)
CC(C)(ON=C(C(=O)NC1C(=O)N2C(C(=O)O)=C(CSc3ccnc4ncnn34)CSC12)c1csc(N)n1)C(=O)NNC(=O)c1ccc(O)c(O)c1 (stereo not shown) [Example 38, 7-{2-[2-Amino-1,3-thiazol-4-yl]-2-[1-(3-(3,4-dihydroxybenzoyl)carbazoyl)-1-methylethoxyimino]acetamide}-3-[(s-triazolo[1,5-a]pyrimidin-7-yl)thiomethyl]-3-cephem-4-carboxylic acid.hydrochloride] |  | 3.13 | 1.56 | 0.012 | 0.025 | 0.012 | 3.13 |  | 25 | 25 |  | 0.39 | 1.56 | 0.1 | 0.1 | 0.39 | 0.025 | 0.78 |  |  | 
Cc1cc(SCC2=C(C(=O)O)N3C(=O)C(NC(=O)C(=NOC(C)(C)C(=O)NNC(=O)c4ccc(O)c(O)c4)c4csc(N)n4)[C@H]3SC2)n2nc(C(F)(F)F)nc2n1 (stereo partly shown) [Example 55, 7-{2-[2-Amino-1,3-thiazol-4-yl]-2-[1-(3-(3,4-dihydroxybenzoyl)carbazoyl)-1-methylethoxyimino]acetamido}-3-[(5-methyl-2-trifluoromethyl-s-triazolo[1,5-a]pyrimidin-7-yl)-thiomethyl]-3-cephem-4-carboxylic acid] |  |  |  |  |  | 0.025 (≈ 0.0293 µM) |  |  |  |  |  |  | 1.56 (≈ 1.83 µM) | 0.39 (≈ 0.458 µM) |  |  |  |  |  |  | MIC ([2]; Table 7): 6.25 µg/mL (≈ 7.34 µM); MIC ([3]; Staphylococcus aureus, Table 7): 6.25 µg/mL (≈ 7.34 µM); MIC ([4]; Escherichia coli, ML4707, E. coli ML4707, Table 7): 0.05 µg/mL (≈ 0.0587 µM); MIC ([5]; Escherichia coli, GN5482, E. coli GN5482, Table 7): 0.025 µg/mL (≈ 0.0293 µM); MIC ([7]; Table 7): 25 µg/mL (≈ 29.3 µM); MIC ([8]; E. colacae 908RN, Table 7): 12.5 µg/mL (≈ 14.7 µM); MIC ([9]; Citrobacter freundii, GN7391, C. freundii GN7391, Table 7): 6.25 µg/mL (≈ 7.34 µM); MIC ([10]; Serratia marcescens, GN10857, S. marcescens GN10857, Table 7): 1.56 µg/mL (≈ 1.83 µM); MIC ([13]; Pseudomonas aeruginosa, 4AU542, P. aeruginosa 4au542, Table 7): 0.39 µg/mL (≈ 0.458 µM); MIC ([14]; Pseudomonas aeruginosa, 5D581, P. aeruginosa 5D58-1, Table 7): 0.39 µg/mL (≈ 0.458 µM); MIC ([15]; Burkholderia cepacia, OF189, P. cepacia OF189, Table 7): 0.05 µg/mL (≈ 0.0587 µM); MIC ([16]; Table 7): 1.56 µg/mL (≈ 1.83 µM)
cephazoline [CAZ, reference compound] |  |  |  |  |  |  | 3.13 |  |  |  |  |  |  |  |  |  |  |  |  |  | MIC ([3]; Table 5): 6.25 µg/mL; MIC ([4]; E. coli ML4707, Table 5): 0.05 µg/mL; MIC ([5]; E. coli GN5482, Table 5): 0.78 µg/mL; MIC ([6]; K. pneumoniae 4at521, Table 5): 0.10 µg/mL; MIC ([9]; C. freundii GN7391, Table 5): > 100.00 µg/mL; MIC ([9]; C. freundii GN7391, Table 6): > 100 µg/mL; MIC ([10]; S. marcescens GN10857, Table 5): 1.56 µg/mL; MIC ([11]; P. vulgaris Gn7919, Table 5): 1.56 µg/mL; MIC ([13]; P. aeruginosa 4au542, Table 5): 1.56 µg/mL; MIC ([14]; P. aeruginosa 5D58-1, Table 5): 0.78 µg/mL; MIC ([15]; P. cepacia OF189, Table 5): 3.13 µg/mL; MIC ([20]; C. freundii 5D60-1, Table 6): > 100 µg/mL; MIC ([20]; C. freundii 5D60-1, Table 8): > 100 µg/mL; MIC ([25]; C. freundii 1U589, Table 6): 100 µg/mL; MIC ([25]; C. freundii 1U589, Table 8): 100 µg/mL; MIC ([26]; C. freundii 1U692, Table 6): 100 µg/mL; MIC ([26]; C. freundii 1U692, Table 8): 50.000 µg/mL
